Measured values as given in US7786136B2, “Indazole-carboxamide compounds” (Theravance, Inc., priority 2004, dated 2010).

Experiment: Pharmacokinetic study in the rat
Assay type: in vivo
Description: Pharmacokinetic Study in the Rat
Aqueous solution formulations of test compounds were prepared in 0.1% lactic acid at a pH of between about 5 and about 6. Male Sprague-Dawley rats (CD strain, Charles River Laboratories, Wilmington, Mass.) were dosed with test compounds via intravenous administration (IV) at a dose of 2.5 mg/kg or by oral gavage (PO) at a dose of 5 mg/kg. The dosing volume was 1 mL/kg for IV and 2 mL/kg for PO administration. Serial blood samples were collected from animals pre-dose, and at 2 (IV only), 5, 15, and 30 min, and at 1, 2, 4, 8, and 24 hours post-dose. Concentrations of test compounds in blood plasma were determined by liquid chromatography-mass spectrometry analysis (LC-MS/MS) (MDS SCIEX, API 4000, Applied Biosystems, Foster City, Calif.) with a lower limit of quantitation of 1 ng/mL.
Standard pharmacokinetic parameters were assessed by non-compartmental analysis (Model 201 for IV and Model 200 for PO) using WinNonlin (Version 4.0.1, Pharsight, Mountain View, Calif.). The maximum in the curve of test compound concentration in blood plasma vs. time is denoted Cmax. The area under the concentration vs. time curve from the time of dosing to the last measurable concentration (AUC(0-t)) was calculated by the linear trapezoidal rule. Oral bioavailability (F(%)), i.e. the dose-normalized ratio of AUC(0-t) for PO administration to AUC(0-t) for IV administration, was calculated as: F(%)=AUCPO/AUCIV×DoseIV/DosePO×100%

[1] = male Sprague-Dawley rats, blood plasma, IV 2.5 mg/kg or PO 5 mg/kg

In the case of `CC(C)n1nc(C(=O)N[C@H]2C[C@H]3CC[C@@H](C2)N3CC(O)CN2CCN(C(=O)C3CCCO3)CC2)c2ccccc21` (stereo partly drawn) [Example 2, 1-isopropyl-1H-indazole-3-carboxylic acid((1S,3R,5R)-8-{2-hydroxy-3-[4-(tetrahydrofuran-2-carbonyl)piperazin-1-yl]propyl}-8-aza-bicyclo[3.2.1]oct-3-yl)amide], the “AUC(0-t)” value [1] is reported as 427 ng·h/mL, the Cmax [1] is reported as 55 ng/mL and the “oral bioavailability (F(%))” value (rat, dose-normalized AUC(0-t) PO 5 mg/kg vs IV 2.5 mg/kg) is reported as “about 30%”.
